Like-named read-outs stand apart in the source and are kept apart here.
Experiments:
Assay type in all cases: biochemical
RPS6KB1 (p70S6K) = biological target: T1, RPS6KB1 (p70S6K) (Homo sapiens, UniProt P23443); test: Further kinase screen, Invitrogen Z'-LYTE; conditions: Table 3
T1 construct: purchased Invitrogen
Experimental: (§1) Kinase profiling was conducted using Invitrogen Z'-LYTE screening protocol and assay conditions found at www.invitrogen.com. Compound (2) inhibited PLK1 completely at 5 μM.
(§2) A further kinase screen was performed on Compounds (2), (4A), and (4B) using the assay described above.

ADRBK1 (GRK2) = biological target: T2, ADRBK1 (GRK2) (Homo sapiens, UniProt P25098); test: Kinase profiling, Invitrogen Z'-LYTE
T2 construct: purchased Invitrogen
T2 sequence (P25098 1-689): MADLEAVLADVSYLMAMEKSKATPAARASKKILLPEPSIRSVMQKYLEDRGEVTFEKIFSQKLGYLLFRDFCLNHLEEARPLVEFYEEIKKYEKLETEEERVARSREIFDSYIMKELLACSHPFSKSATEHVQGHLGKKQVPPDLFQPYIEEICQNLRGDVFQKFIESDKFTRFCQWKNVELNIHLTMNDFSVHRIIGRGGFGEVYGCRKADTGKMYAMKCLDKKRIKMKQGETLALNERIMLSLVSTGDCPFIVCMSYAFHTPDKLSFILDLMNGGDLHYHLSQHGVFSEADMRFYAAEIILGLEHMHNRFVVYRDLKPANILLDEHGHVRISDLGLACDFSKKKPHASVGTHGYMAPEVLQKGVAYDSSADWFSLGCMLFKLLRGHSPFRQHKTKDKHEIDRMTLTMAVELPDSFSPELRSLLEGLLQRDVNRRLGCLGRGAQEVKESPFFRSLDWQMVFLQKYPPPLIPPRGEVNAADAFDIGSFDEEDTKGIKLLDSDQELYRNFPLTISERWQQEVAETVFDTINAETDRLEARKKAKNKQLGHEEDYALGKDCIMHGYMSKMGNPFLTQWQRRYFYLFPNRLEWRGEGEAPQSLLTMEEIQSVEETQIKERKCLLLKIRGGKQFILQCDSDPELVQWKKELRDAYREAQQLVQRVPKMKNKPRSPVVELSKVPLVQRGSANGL
Experimental: as §1, §2

PLK1 = biological target: T3, PLK1 (Homo sapiens, UniProt P53350); test: Kinase profiling, Invitrogen Z'-LYTE; conditions: for inhibition at 5 µM / % Inhibition Point 1 / % Inhibition Point 2 / % Inhibition mean: PLK1; for inhibition at 5 µM: Table 2; for % Inhibition Point 1 / % Inhibition Point 2 / % Inhibition mean: Table 3 further screen
T3 construct: purchased Invitrogen
T3 sequence (P53350 whole entry): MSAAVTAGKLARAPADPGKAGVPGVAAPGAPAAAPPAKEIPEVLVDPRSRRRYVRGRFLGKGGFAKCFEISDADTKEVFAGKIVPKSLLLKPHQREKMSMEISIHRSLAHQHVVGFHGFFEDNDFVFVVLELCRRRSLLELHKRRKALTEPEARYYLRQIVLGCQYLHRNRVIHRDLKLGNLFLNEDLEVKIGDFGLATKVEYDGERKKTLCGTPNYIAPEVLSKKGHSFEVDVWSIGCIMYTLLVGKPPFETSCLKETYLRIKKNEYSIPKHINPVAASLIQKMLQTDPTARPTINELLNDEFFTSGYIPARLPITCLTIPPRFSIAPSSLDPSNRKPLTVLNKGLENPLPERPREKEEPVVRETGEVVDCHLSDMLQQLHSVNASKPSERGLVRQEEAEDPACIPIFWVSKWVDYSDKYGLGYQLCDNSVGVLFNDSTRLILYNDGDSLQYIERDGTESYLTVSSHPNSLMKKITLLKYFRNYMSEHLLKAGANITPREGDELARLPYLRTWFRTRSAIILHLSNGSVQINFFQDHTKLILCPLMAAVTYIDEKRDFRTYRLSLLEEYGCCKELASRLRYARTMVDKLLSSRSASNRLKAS
Experimental: as §1, §2

OGT = biological target: T4, OGT (Homo sapiens, UniProt O15294); test: IC50 assay, OGT peptide-capture assay
T4 construct: hOGT4.5 construct (spanning residues 313-1031 based on the numbering of the full length human protein); made in house
T4 sequence (O15294 313-1031 isoform O15294-3): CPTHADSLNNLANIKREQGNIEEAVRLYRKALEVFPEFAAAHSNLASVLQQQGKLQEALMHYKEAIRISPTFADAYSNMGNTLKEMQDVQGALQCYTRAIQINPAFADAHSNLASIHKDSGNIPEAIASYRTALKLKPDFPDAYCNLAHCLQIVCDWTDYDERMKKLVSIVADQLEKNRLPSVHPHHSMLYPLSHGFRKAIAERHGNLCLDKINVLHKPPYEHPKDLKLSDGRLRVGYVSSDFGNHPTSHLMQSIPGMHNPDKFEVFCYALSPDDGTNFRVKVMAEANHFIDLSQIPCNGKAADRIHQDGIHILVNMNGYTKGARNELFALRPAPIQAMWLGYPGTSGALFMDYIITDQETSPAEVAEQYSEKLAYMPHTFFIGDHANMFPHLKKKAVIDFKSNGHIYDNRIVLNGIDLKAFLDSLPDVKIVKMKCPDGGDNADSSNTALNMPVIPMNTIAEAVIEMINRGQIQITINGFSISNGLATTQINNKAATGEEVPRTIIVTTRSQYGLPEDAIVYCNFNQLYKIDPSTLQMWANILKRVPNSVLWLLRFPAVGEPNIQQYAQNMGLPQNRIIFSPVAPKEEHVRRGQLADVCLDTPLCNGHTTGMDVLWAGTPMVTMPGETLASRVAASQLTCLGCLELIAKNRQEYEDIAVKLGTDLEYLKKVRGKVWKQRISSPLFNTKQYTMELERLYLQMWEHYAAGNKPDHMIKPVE
Experimental: IC50 Assay of Thiocarbamate to OGT.
Enzyme activity was tested with the peptide-capture assay in the presence of different concentrations of each compound as previously reported (J. Am. Chem. Soc. 2005, 127, 14588-14589).

[1] = peptide-capture assay, different concentrations of each compound, read-out: IC50 Values

T1 sequence (P23443 whole entry): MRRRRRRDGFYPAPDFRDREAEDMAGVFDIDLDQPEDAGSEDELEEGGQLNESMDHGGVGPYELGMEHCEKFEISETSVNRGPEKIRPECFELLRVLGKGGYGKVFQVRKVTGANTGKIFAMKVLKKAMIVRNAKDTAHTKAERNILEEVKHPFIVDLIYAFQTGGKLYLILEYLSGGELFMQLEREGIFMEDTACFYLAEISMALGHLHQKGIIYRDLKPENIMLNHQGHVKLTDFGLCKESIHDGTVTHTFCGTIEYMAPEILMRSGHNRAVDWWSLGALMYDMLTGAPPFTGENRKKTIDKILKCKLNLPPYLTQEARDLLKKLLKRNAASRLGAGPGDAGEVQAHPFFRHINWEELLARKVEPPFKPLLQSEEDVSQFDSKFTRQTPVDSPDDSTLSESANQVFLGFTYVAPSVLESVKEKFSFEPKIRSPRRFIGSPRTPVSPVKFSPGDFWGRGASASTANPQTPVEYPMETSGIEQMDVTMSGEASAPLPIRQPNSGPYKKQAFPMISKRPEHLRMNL

% Inhibition Point 1 (RPS6KB1 (p70S6K)) [%] | % Inhibition Point 2 (RPS6KB1 (p70S6K)) [%] | % Inhibition mean (RPS6KB1 (p70S6K)) [%] | % Inhibition Point 1 (ADRBK1 (GRK2); Table 3 further screen) [%] | % Inhibition Point 2 (ADRBK1 (GRK2); Table 3 further screen) [%] | % Inhibition mean (ADRBK1 (GRK2); Table 3 further screen) [%] | % Inhibition Point 1 (PLK1) [%] | % Inhibition Point 2 (PLK1) [%] | % Inhibition mean (PLK1) [%] | IC50 (OGT; [1]) [µM] | Compound | % Inhibition Point 1 (ADRBK1 (GRK2); Table 2) [%] | % Inhibition Point 2 (ADRBK1 (GRK2); Table 2) [%] | % Inhibition mean (ADRBK1 (GRK2); Table 2) [%] | PLK1 inhibition (PLK1; 5 μM) | inhibition at 5 µM (PLK1; 5 μM, read-out: % Inhibition Point 1) [%] | inhibition at 5 µM (PLK1; 5 μM, read-out: % Inhibition Point 2) [%] | inhibition at 5 µM (PLK1; 5 μM, read-out: % Inhibition mean) [%] | IC50 (OGT; read-out: apparent IC50) [µM]
19 | 22 | 21 | 3 | 7 | 5 | 70 | 65 | 68 | 14 | COc1ccc(OC(=S)n2c(=O)oc3cc(C(C)=O)ccc32)cc1 [Compound 4A] |  |  |  |  |  |  |  | 
35 | 44 | 40 | 7 | 6 | 7 | 98 | 101 | 100 | ~100 | COc1ccc(OC(=O)n2c(=S)oc3cc(C(C)=O)ccc32)cc1 [Compound 4B] |  |  |  |  |  |  |  | 

Compound | % Inhibition Point 1 (RPS6KB1 (p70S6K)) [%] | % Inhibition Point 2 (RPS6KB1 (p70S6K)) [%] | % Inhibition mean (RPS6KB1 (p70S6K)) [%] | % Inhibition Point 1 (ADRBK1 (GRK2); Table 3 further screen) [%] | % Inhibition Point 2 (ADRBK1 (GRK2); Table 3 further screen) [%] | % Inhibition mean (ADRBK1 (GRK2); Table 3 further screen) [%] | % Inhibition Point 1 (PLK1) [%] | % Inhibition Point 2 (PLK1) [%] | % Inhibition mean (PLK1) [%] | IC50 (OGT; [1]) [µM] | % Inhibition Point 1 (ADRBK1 (GRK2); Table 2) [%] | % Inhibition Point 2 (ADRBK1 (GRK2); Table 2) [%] | % Inhibition mean (ADRBK1 (GRK2); Table 2) [%] | PLK1 inhibition (PLK1; 5 μM) | inhibition at 5 µM (PLK1; 5 μM, read-out: % Inhibition Point 1) [%] | inhibition at 5 µM (PLK1; 5 μM, read-out: % Inhibition Point 2) [%] | inhibition at 5 µM (PLK1; 5 μM, read-out: % Inhibition mean) [%] | IC50 (OGT; read-out: apparent IC50) [µM]
COc1ccc(OC(=O)n2c(=O)oc3cc(C(C)=O)ccc32)cc1 [Compound 2] | −138 | −122 | −130 | 4 | 7 | 5 | 101 | 101 | 101 | 2 | 2 | 5 | 4 | completely | 104 | 104 | 104 | 1.6 ± 1.1
